Experimental data published in patent publication US9320760B2, “Compositions and methods of use of compounds to increase cancer patient survival time” (BioNumerik Pharmaceuticals, Inc., priority 2008, dated 2016).

Target: T1, glutathione reductase (GR) (Homo sapiens, UniProt P00390)
T1 sequence (P00390 44-522): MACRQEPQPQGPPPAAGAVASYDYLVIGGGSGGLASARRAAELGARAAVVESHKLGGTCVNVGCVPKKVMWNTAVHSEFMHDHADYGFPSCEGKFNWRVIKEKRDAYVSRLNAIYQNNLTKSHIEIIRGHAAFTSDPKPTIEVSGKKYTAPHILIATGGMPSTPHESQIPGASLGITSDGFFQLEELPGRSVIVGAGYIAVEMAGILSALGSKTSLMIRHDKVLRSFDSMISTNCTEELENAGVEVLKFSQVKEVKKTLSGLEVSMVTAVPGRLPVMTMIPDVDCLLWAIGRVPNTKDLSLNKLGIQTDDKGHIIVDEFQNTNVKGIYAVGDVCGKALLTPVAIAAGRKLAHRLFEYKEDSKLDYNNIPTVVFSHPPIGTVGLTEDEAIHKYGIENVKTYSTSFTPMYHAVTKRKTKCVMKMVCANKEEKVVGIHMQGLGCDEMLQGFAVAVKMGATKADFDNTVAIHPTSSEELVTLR
Test: NADPH oxidation, glutathione reductase (GR) alone
Type: biochemical
Description: The Formula (I) compound was utilized at a concentration of 0.5 mM.

With `O=S(=O)([O-])CCSSCCS(=O)(=O)[O-].[Na+].[Na+]` [Tavocept™, disodium 2,2′-dithio-bis-ethane sulfonate] the “NADPH Oxidation, GR” value (Disulfide 0.5 mM, n = 6) was 0.0 ± 0.01 nmol/min/mL and the “substrate / alternative substrate inhibitor for glutathione reductase” value (result in words) was “not a substrate”.
